Experimental data taken from patent US20150306107A1, “SAA Derivative Compound Restores eNOS And Inhibits Oxidative Stress-Induced A Diseases In Hypoxia” (JANSFAT BIOTECHNOLOGY CO., LTD., priority 2014, published 2015).

Legend:
eNOS [1] = assay: Western blotting of eNOS expression in isolated rat pulmonary artery ring, short-term (acute) hypoxia or normoxia; type: cell-based
Procedure, shortened: (§1)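 Isolated rat (male Wistar) pulmonary artery kept under normoxia (20% O2) or hypoxia (1% O2) at 37° C. for 24 hrs. Protein extracted, resolved on 10% SDS-PAGE ([…]), blotted to PVDF, probed with specific antibodies and ECL-detected, β-actin as loading control.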

VEGF = assay: Western blotting of VEGF expression in isolated rat pulmonary artery ring, short-term (acute) hypoxia; type: cell-based; conditions: isolated pulmonary artery
Procedure, shortened: as §1

ROCK II = assay: Western blotting of ROCK II expression in isolated rat pulmonary artery ring, short-term (acute) hypoxia or normoxia; type: cell-based
Description: (§2) In our in vitro short-term experiment, isolated rat pulmonary artery was grown under normoxia (20% O2) or hypoxia (1% O2) at 37° C. for 24 hrs as was previously done (Wu BN, et al. Int J Immunopathol Pharmacol 24:925, 2011). The heart weight and body weight ratio (HW/BW) of the rats treated with one of SPAAX-1, SPAAX-1 RX complex, Sildenafil or Sildenafil RX complex each measured on the 21st hypoxic day. All animal care and the experimental protocols of this study were approved by the Animal Care and Use Committee of the Kaohsiung Medical University. Male Wistar rats (200-250 g), provided by the National Laboratory Animal Breeding and Research Center (Taipei, Taiwan), were housed under constant temperature and controlled illumination. Food and water were available ad libitum.
(§3) Whole right lung tissues of hypoxia-treated and untreated rats were isolated and cut into small strips and placed into an extraction buffer (Tris 10 mM, pH 7.0, NaCl 140 mM, PMSF 2 mM, DTT 5 mM, NP-40 0.5%, pepstatin A 0.05 mM and leupeptin 0.2 mM) for protein extraction, and then centrifuged at 12,500 g for 30 min. To measure the expression levels of the proteins, the total proteins were extracted and Western blotting analysis was performed as described previously (Bivalacqua T J, et al., 2013, TJ PLoSONE 8: e68028. doi:10.1371/journal. pone.0068028). Briefly, the protein extract was boiled to a ratio of 4:1 with a sample buffer (Tris 100 mM, pH 6.8, glycerol 20%, SDS 4% and bromophenol blue 0.2%). Electrophoresis was performed using 10% SDS-polyacrylamide gel (2 hr, 100 V, 40 mA, […] protein per lane). Separated proteins were transferred to PVDF membranes treated with 5% fat-free milk powder to block the nonspecific IgGs (90 min, 100 V) and incubated for one hour with a specific protein antibody. The blot was then incubated with anti-mouse or anti-goat IgG linked to alkaline phosphatase (1:1000) for 1 hr. Immunoreactive bands were visualized using horseradish peroxidase-conjugated secondary antibodies and subsequent electrochemiluminescence (ECL) detection (GE Healthcare Bio-Sciences Corp., Piscataway, N.J., U.S.A.). Mouse or rabbit monoclonal antibody of eNOS (Upstate, N.Y., U.S.A.), sGCα (Sigma-Adrich, CA, U.S.A., sGCβ (Santa Cruz, Calif., U.S.A.), PDE-5A (BD Tansduction, San Jose, Calif., U.S.A.), PKG (Calbiochem, San Diego, Calif., U.S.A.) ROCKII (Upstate, N.Y., U.S.A.), RhoA (Santa Cruze, Calif., U.S.A.) and the loading control protein β-actin (Sigma-Adrich, MO, U.S.A.) were used in our Western blot analysis.
The Western blotting analysis measurements were performed as per lung tissue.

sGCα1 [2] = assay: Western blotting of sGCα1 expression in isolated pulmonary artery, short-term hypoxia; type: cell-based, rat
Description: as §2
Whole right lung tissues of hypoxia-treated and untreated rats were isolated and cut into small strips and placed into an extraction buffer (Tris 10 mM, pH 7.0, NaCl 140 mM, PMSF 2 mM, DTT 5 mM, NP-40 0.5%, pepstatin A 0.05 mM and leupeptin 0.2 mM) for protein extraction, and then centrifuged at 12,500 g for 30 min. To measure the expression levels of the proteins, the total proteins were extracted and Western blotting analysis was performed as described previously (Bivalacqua T J, et al., 2013, TJ PLoSONE 8: e68028. doi:10.1371/journal. pone.0068028). […]

hypoxic rats [3] = assay: Hemodynamics of rats with hypoxic PAH, chronic hypoxia 21 days; type: in vivo, rat; conditions: 5 mg/kg/day, p.o.
Text: Int J Immunopathol Pharmacol 24:925, 2011). The heart weight and body weight ratio (HW/BW) of the rats treated with one of […] complex, Sildenafil or Sildenafil RX complex each measured on the 21st hypoxic day. All animal care and the experimental protocols of this study were approved by the Animal Care and Use Committee of the Kaohsiung Medical University. Male Wistar rats (200-250 g), provided by the National Laboratory Animal Breeding and Research Center (Taipei, Taiwan), were housed under constant temperature and controlled illumination. Food and water were available ad libitum. Normoxic rats were housed in room temperature air at normal atmospheric pressure (760 mm Hg). […] After completion of the exposure, tissues were prepared as indicated for contraction measurements, Western blot analysis, RNA extraction, or morphological analysis. […] Their breathing was normal and their body temperature was maintained at 37° C. […] The animals were then sacrificed by the administration of an overdose of urethane.

hypoxic rats [4] = assay: Pulmonary artery wall thickness and muscularization (HE staining) after long-term hypoxia; type: in vivo, rat
Description: The right lobes of the rat lungs and heart of six rats from each group were cut and soaked in formalin, dehydrated through graded alcohols, and embedded in paraffin wax. The lung tissue specimens fixed with formalin (4%) were embedded in paraffin for one hour at 4° C., cut into 4-μm-thick sections, and subjected to H&E staining before examination by light microscope. In our histopathological study, we measured the thickening of the medial wall of the small intrapulmonary arteries under an Eclipse TE2000-S (Nikon) microscope. In the heart tissues, the 4-μm-thick paraffin sections were cut from paraffin-embedded tissue blocks and de-paraffinized by immersion in xylene and rehydrated as previously described (Bivalacqua T J, et al., PLoSONE 8: e68028. doi:10.1371/journal. pone.0068028). The slices were then dyed with H&E. After gently rinsing with water, each slide was dehydrated through graded alcohols and finally soaked in xylene twice. The relative cardiac weight of right ventricle (RV)/[left ventricle (LV)+intraventricular septum (S)] ratio (i.e. right heart index) was calculated using right ventricle/left ventricle+septum (RV/LV+S). Measurements were obtained with Histolab software (Microvision Instruments, Evry, France).

eNOS [5] = assay: Western blotting of eNOS in lung tissue after long-term hypoxia; type: in vivo, rat; conditions: hypoxia 21 days; compared to normoxia control
sGCα1 [6] = assay: Western blotting of sGCα1 in lung tissue after long-term hypoxia; type: in vivo, rat; conditions: hypoxia 21 days; compared to normoxia control
PKG = assay: Western blotting of PKG in lung tissue after long-term hypoxia; type: in vivo, rat; conditions: hypoxia 21 days
Description: as §3, with “Mouse or rabbit monoclonal antibody of eNOS (Upstate, N.Y., U.S.A.), sGCα (Sigma-Adrich, CA, U.S.A., sGCβ (Santa Cruz, Calif., U.S.A.), PDE-5A (BD Tansduction, San Jose, Calif., U.S.A.), PKG (Calbiochem, San Diego, Calif., U.S.A.) ROCKII (Upstate, N.Y., U.S.A.), RhoA (Santa Cruze, Calif., U.S.A.) and the loading control protein β-actin (Sigma-Adrich, MO, U.S.A.) were used in our Western blot analysis.” left out

[7] = normoxia for 24 hrs, 10 μm, versus non-treated controls

## Cn1c(=O)c2c(ncn2CCN2CCN(c3ccccc3Cl)CC2)n(C)c1=O.O=C1O[C@H]([C@@H](O)CO)C(O)=C1O [SPAAX-1 ascorbate complex, 7-[2-[4-(2-chlorobenzene)piperazinyl]ethyl]-1,3-dimethylxanthine.ascorbic acid]
eNOS [1]; hypoxia for 24 hrs, versus control level in normoxia, hypoxia 60±8.3%
  eNOS in isolated hypoxic pulmonary artery: 45±3.0%
eNOS [1]; isolated pulmonary artery, acute hypoxia
  eNOS in acute hypoxia: restored
eNOS [1]; [7]
  expression of eNOS in isolated pulmonary artery ring: 117.9±9.1%
VEGF
  VEGF in acute hypoxia: inhibited
ROCK II; hypoxia for 24 hrs, versus control level in normoxia, hypoxia 180±10.2%
  expression of ROCK II in isolated hypoxic pulmonary artery: 140±9.0%
ROCK II; [7]
  Expression of ROCK II in isolated pulmonary artery ring: 48.2±5.5%
sGCα1 [2]
  SGC-a in hypoxia: neither SPAAX-1 ascorbate complex nor Sildenafil ascorbate complex significantly affected
Hypoxic rats [3]
  BW (body weight): 28.8 ± 7.9 g
Hypoxic rats [3]; normoxia 12.9 ± 0.9, hypoxia 26.5 ± 0.6
  MPAP (mean pulmonary arterial pressure): 16.9±1.1 mmHg
Hypoxic rats [4]; hypoxia 21 days, 5 mg/kg/day
  Small pulmonary arterial morphology (<150 μm): highly improved
Hypoxic rats [4]; hypoxia 21 days, 5 mg/kg/day, hypoxia 165.8±5.4%
  hypoxia-induced pulmonary artery wall thickness: inhibited
Hypoxic rats [4]; hypoxic rats, versus vehicle only
  muscularizations of distal pulmonary artery (HE staining): significantly lower
eNOS [5]
  eNOS expression in lung tissue: 139.7±16.9%
sGCα1 [6]
  sGCα1 expression in lung tissue: 40.4±8.4%
PKG
  PKG expression in lung tissue: 85.0±12.9%
